Test results: ChEMBL document CHEMBL3244132, “Semisynthetic aminoglycoside antibacterials. 6. Synthesis of sisomicin, Antibiotic G-52, and novel 6'-substituted analogues of sisomicin from aminoglycoside 66-40C” (J Med Chem, 1978)
Calls of active or inactive are those of the source.

What was measured:
Format in all cases: functional
Pseudomonas aeruginosa [1] = experiment: Antimicrobial activity against Pseudomonas aeruginosa St. M. 1395 by tube dilution method
Escherichia coli [2] = experiment: Antimicrobial activity against Escherichia coli LA290R55 carrying ANT(2'') by tube dilution method
Entamoeba histolytica = experiment: Antiprotozoal activity against Entamoeba histolytica JH
Bacillus subtilis = experiment: Antimicrobial activity against Bacillus subtilis ATCC 6633 by tube dilution method
Escherichia coli [3] = experiment: Antimicrobial activity against Escherichia coli JR88 carrying AAC(3) by tube dilution method
Staphylococcus aureus [4] = experiment: Antimicrobial activity against Staphylococcus aureus Wood by tube dilution method
Histomonas meleagridis = experiment: Antiprotozoal activity against Histomonas meleagridis
Providencia rettgeri [5] = experiment: Antimicrobial activity against Providencia rettgeri Membel by tube dilution method
Trichomonas vaginalis = experiment: Antiprotozoal activity against Trichomonas vaginalis after 48 hrs
Streptococcus pyogenes [6] = experiment: Antimicrobial activity against Streptococcus pyogenes Group A Cruz by tube dilution method
Providencia = experiment: Antimicrobial activity against Providencia 164 carrying AAC(2')-I by tube dilution method
Providencia rettgeri [7] = experiment: Antimicrobial activity against Providencia rettgeri Anderson by tube dilution method
Escherichia coli [8] = experiment: Antimicrobial activity against Escherichia coli ATCC 10536 by tube dilution method
Escherichia coli [9] = experiment: Antimicrobial activity against Escherichia coli Baker 2 carrying APH(3')-I by tube dilution method
Staphylococcus aureus [10] = experiment: Antimicrobial activity against Staphylococcus aureus Ziegler by tube dilution method
Pseudomonas aeruginosa [11] = experiment: Antimicrobial activity against Pseudomonas aeruginosa Stone 130 carrying AAC(3) by tube dilution method
Streptococcus pyogenes [12] = experiment: Antimicrobial activity against Streptococcus pyogenes Alvarez by tube dilution method
Staphylococcus aureus [13] = experiment: Antimicrobial activity against Staphylococcus aureus 59N by tube dilution method
Serratia marcescens = experiment: Antimicrobial activity against Serratia marcescens Dalton by tube dilution method
Streptococcus pyogenes [14] = experiment: Antimicrobial activity against Streptococcus pyogenes C by tube dilution method
Salmonella typhimurium = experiment: Antimicrobial activity against Salmonella typhimurium Gr. B. by tube dilution method; conditions: Salmonella enterica subsp. enterica serovar Typhimurium
Pseudomonas aeruginosa [15] = experiment: Antimicrobial activity against Pseudomonas aeruginosa St. M. 762 by tube dilution method
Streptococcus pyogenes [16] = experiment: Antimicrobial activity against Streptococcus pyogenes 27 by tube dilution method
Klebsiella pneumoniae [17] = experiment: Antimicrobial activity against Klebsiella pneumoniae Georgetown 3694 carrying APH(2'') by tube dilution method
Klebsiella pneumoniae [18] = experiment: Antimicrobial activity against Klebsiella pneumoniae Adler 17 carrying APH(3')-I by tube dilution method
Pseudomonas aeruginosa [19] = experiment: Antimicrobial activity against Pseudomonas aeruginosa GN 315 carrying AAC(6') by tube dilution method
Staphylococcus aureus [20] = experiment: Antimicrobial activity against Staphylococcus aureus 209 P by tube dilution method
Escherichia coli [21] = experiment: Antimicrobial activity against Escherichia coli HL97/W677 carrying AAC(6') by tube dilution method
Proteus mirabilis = experiment: Antimicrobial activity against Proteus mirabilis Harding by tube dilution method

Measured: Activity

CN[C@@H]1[C@@H](O)[C@@H](O[C@@H]2[C@@H](O)[C@H](O[C@H]3OC(CNOC)=CC[C@H]3N)[C@@H](N)C[C@H]2N)OC[C@]1(C)O
inactive: all assays above

CN[C@@H]1[C@@H](O)[C@@H](O[C@@H]2[C@@H](O)[C@H](O[C@H]3OC(/C=N\N)=CC[C@H]3N)[C@@H](N)C[C@H]2N)OC[C@]1(C)O
inactive: all assays above

CN[C@@H]1[C@@H](O)[C@@H](O[C@@H]2[C@@H](O)[C@H](O[C@H]3OC(CNN)=CC[C@H]3N)[C@@H](N)C[C@H]2N)OC[C@]1(C)O
inactive: all assays above

CN[C@@H]1[C@@H](O)[C@@H](O[C@@H]2[C@@H](O)[C@H](O[C@H]3OC(/C=N/N4CCOCC4)=CC[C@H]3N)[C@@H](N)C[C@H]2N)OC[C@]1(C)O
inactive: all assays above

CN[C@@H]1[C@@H](O)[C@@H](O[C@@H]2[C@@H](O)[C@H](O[C@H]3O[C@H](CN)[C@@H](O)[C@H](O)[C@H]3N)[C@@H](N)C[C@H]2N)OC[C@]1(C)O
inactive: Entamoeba histolytica | Histomonas meleagridis | Trichomonas vaginalis

CN[C@@H]1[C@@H](O)[C@@H](O[C@@H]2[C@@H](O)[C@H](O[C@H]3O[C@H](C(C)N)[C@@H](O)[C@H](O)[C@H]3N)[C@@H](N)C[C@H]2N)OC[C@]1(C)O (stereo not given in full)
inactive: Entamoeba histolytica | Histomonas meleagridis | Trichomonas vaginalis

CN[C@@H]1[C@@H](O)[C@@H](O[C@@H]2[C@@H](O)[C@H](O[C@H]3OC(/C=N\OC)=CC[C@H]3N)[C@@H](N)C[C@H]2N)OC[C@]1(C)O
inactive: all assays above

CN[C@@H]1[C@@H](O)[C@@H](O[C@@H]2[C@@H](O)[C@H](O[C@H]3O[C@@H](CN)CC[C@H]3N)[C@@H](N)C[C@H]2N)OC[C@]1(C)O
inactive: Entamoeba histolytica | Histomonas meleagridis | Trichomonas vaginalis

CN[C@@H]1[C@@H](O)[C@@H](O[C@@H]2[C@@H](O)[C@H](O[C@H]3OC(/C=N\O)=CC[C@H]3N)[C@@H](N)C[C@H]2N)OC[C@]1(C)O
inactive: all assays above

CN[C@@H]1[C@@H](O)[C@@H](O[C@@H]2[C@@H](O)[C@H](O[C@H]3OC(CNN4CCOCC4)=CC[C@H]3N)[C@@H](N)C[C@H]2N)OC[C@]1(C)O
inactive: all assays above

CN[C@@H]1[C@@H](O)[C@@H](O[C@@H]2[C@@H](O)[C@H](O[C@H]3OC(C(C)N)CC[C@H]3N)[C@@H](N)C[C@H]2N)OC[C@]1(C)O (single isomer, unassigned)
inactive: Entamoeba histolytica | Histomonas meleagridis | Trichomonas vaginalis
